Results as given in patent US9169241B2, “Quinolinyloxyphenylsulfonamides” (Max-Planck-Gesellschaft Zur Forderung der Wissenschaften …, priority 2009, dated 2015).
pIC50: −log10 of the molar value.

Key:
[1] = test system: Hs578T; experiment: Wound healing migration assay; format: cell-based; settings: Homo sapiens, Hs-578T; HS578T cell line; Table Ib
Protocol: This method mimics cell migration during wound healing in vivo. The basic steps involve creating a “wound” in a cell monolayer, capturing the images at the beginning and at regular intervals during cell migration to close the wound, and comparing the images to quantify the migration rate of the cells. In detail, 150000 cell/24 well have been seeded and allowed to form a monolayer overnight. Subsequently a “wound” or “scratch” has been performed with a 1000 μl pipette tip. The STDV of wound size is normally below 10% at time point t0. The assay was stopped by fixation with 0.05% Crystal violet/20% methanol when control scratches were closed. The assay was terminated between 48 h and 72 h depending on the migration potential of the indicated cell line. The “wounds” were visualized with a Zeiss Axiovert S100 microscope (Carl Zeiss UK, Welwyn Garden City, UK). The tested compounds were used at 12.5 μM, 6.25, 3.125 μM and DMSO control. IC50 values have been calculated as 50% wound size in between t0 and t48 or t72.

[2] = test system: Hs578T; experiment: Cell vitality assay (ATP assay, CellTiter-Glo); format: cell-based; settings: Homo sapiens, Hs-578T; HS578T cell line, 72 h; Table Ib; read-out: IC50 ATP-Assay HS578T after 72 h
Protocol: The CellTiter-Glo® Luminescent Cell Viability Assay (Promega Corporation. Madison, Wis., USA) is method a determining the number of viable cells in culture based on quantification of the ATP being present which is an indicator of metabolically active cells was used according to manufacturers protocol, In detail the assay was performed in a 96 well format were 1000 cells/well were incubated with indicated compound at concentration of 12.5 μM, 6.25 μM, 3.125 μM, 1.56 μM, 0.78 μM, 0.39 μM, 0.195 μM as well as DMSO control for 72 h in 100 μl cell culture medium. IC50 values were calculated as 50% of ATP amount compared to DMSO control.
Protocol for the CellTiter-Glo® Luminescent Cell Viability Assay • 1. Prepare opaque-walled multiwell plates with mammalian cells in culture medium, 100 μl per well for 96-well plates • 2. Prepare control wells containing medium without cells to obtain a value for background luminescence. • 3. Add the compound to be tested to experimental wells, and incubate according to culture protocol. • 4. Equilibrate the plate and its contents at room temperature for approximately 30 minutes. • 5. Add a volume of CellTiter-Glo® Reagent (Promega Corporation. Madison, Wis.) equal to the volume of cell culture medium present in each well. • 6. Mix contents for 2 minutes on an orbital shaker to induce cell lysis. • 7. Allow the plate to incubate at room temperature for 10 minutes to stabilize luminescent signal. • 8. Record luminescence on Microplate Luminometer LB96V (Berthold Tchnologies, Bad Wildbad, Germany). An integration time of 0.1 and 1 second per well

[3] = test system: Hs578T; experiment: Matrigel outgrowth assay/branching assay; format: cell-based; settings: Homo sapiens, Hs-578T; HS578T cell line; Table Ib; read-out: Total branching inhibition in Matrigel HS578T
Protocol: The Matrigel outgrowth assay is based on the ability of tumor cell to penetrate a solid gel of extracellular matrix proteins mimicking the metastasis formation in vivo. While cells with low invasive potential appear as roundish cell or cell cluster, cells with high invasive potential penetrate the Matrigel and form polymorphic structures. In detail 65 μl of Matrigel matrix (Matrigel™ Matrix, BD Biosciences, Bedford, Mass., USA) with a concentration of 3 mg/ml have been polymerized in 96 well plates for 1 h at 37° C. Subsequently 5000 cell/well were seeded into each well containing cell culture medium and indicated compound with concentrations of 3.125 μM, 1.56 μM and 0.78 μM as well as DMSO control. After 48 h, 72 h and 96 h images of cell were taken on an inverted microscope using a 5× objective (Zeiss Axiovert S100 microscope Carl Zeiss UK, Welwyn Garden City, UK). Only compound concentrations were total branching inhibition was evident were accounted as positive. Method was used as previously described, with some modifications (Thompson E W, et al. Association of increased basement membrane invasiveness with absence of estrogen receptor and expression of vimentin in human breast cancer cell lines. J Cell Physiol 1992; 150:534-44).

Row | SMILES | melting point [°C] | pIC50 [1] | pIC50 [2] | pIC50 [3]
1 | COc1cc2c(Oc3ccc(NS(=O)(=O)c4ccccc4C(F)(F)F)cc3F)ccnc2cc1OCCCCOC(C)=O [Example 212, Acetic acid 4-{4-[2-fluoro-4-(2-trifluoromethyl-benzenesulfonylamino)-phenoxy]-6-methoxy-quinolin-7-yloxy}-butyl ester] | 143 to 145 | 4.30 to 4.90 | 4.30 to 4.90 | 4.60 to 5.00
2 | COc1cc2c(Oc3ccc(NS(=O)(=O)c4cc(F)ccc4F)cc3F)ccnc2cc1OCCCCOC(C)=O [Example 211, Acetic acid 4-{4-[4-(2,5-difluoro-benzenesulfonylamino)-2-fluoro-phenoxy]-6-methoxy-quinolin-7-yloxy}-butyl ester] | 165 to 167 | ≥ 4.90 | ≥ 4.90 | 4.60 to 5.00
3 | COC(=O)c1sccc1S(=O)(=O)Nc1cccc(Oc2ccnc3cc(OCCCN4CCN(C)CC4)c(OC)cc23)c1 [Example 135, 3-(3-{6-Methoxy-7-[3-(4-methyl-piperazin-1-yl)-propoxy]-quinolin-4-yloxy}-phenylsulfamoyl)-thiophene-2-carboxylic acid methyl ester] | 84 to 86 | 4.30 to 4.90 | 4.30 to 4.90 | 4.60 to 5.00
4 | COc1ccc2nccc(Oc3ccc(NS(=O)(=O)c4c(Cl)cccc4Cl)cc3F)c2c1 [Example 204, 2,6-Dichloro-N-[3-fluoro-4-(6-methoxy-quinolin-4-yloxy)-phenyl]-benzenesulfonamide] | 219 to 221 | 4.30 to 4.90 | 4.30 to 4.90 | 4.60 to 5.00
5 | COc1cc2c(Oc3ccc(NS(=O)(=O)c4ccccc4C(F)(F)F)cc3F)ccnc2cc1OCCCNC(=O)OC(C)(C)C [Example 120, (3-{4-[2-Fluoro-4-(2-trifluoromethyl-benzenesulfonylamino)-phenoxy]-6-methoxy-quinolin-7-yloxy}-propyl)-carbamic acid tert-butyl ester] | 80 to 82 | 4.30 to 4.90 | 4.30 to 4.90 | 4.60 to 5.00
6 | COc1cc2c(Oc3cccc(NS(=O)(=O)c4sc(NC(C)=O)nc4C)c3)ccnc2cc1OCCCN1CCN(C)CC1 [Example 132, N-[5-(3-{6-Methoxy-7-[3-(4-methyl-piperazin-1-yl)-propoxy]-quinolin-4-yloxy}-phenylsulfamoyl)-4-methyl-thiazol-2-yl]-acetamide] | 148 to 150 | 4.30 to 4.90 | 4.30 to 4.90 | 4.60 to 5.00
7 | COc1ccc2nccc(Oc3ccc(NS(=O)(=O)C4CC4)cc3F)c2c1 [Example 206, Cyclopropanesulfonic acid [3-fluoro-4-(6-methoxy-quinolin-4-yloxy)-phenyl]-amide] | 194 to 196 | 4.30 to 4.90 | 4.30 to 4.90 | 4.60 to 5.00
8 | CCOC(=O)COc1cc2nccc(Oc3ccc(NS(=O)(=O)c4ccccc4F)cc3F)c2cc1OC [Example 92, {4-[2-Fluoro-4-(2-fluoro-benzenesulfonylamino)-phenoxy]-6-methoxy-quinolin-7-yloxy}-acetic acid ethyl ester] | 87 to 89 | 4.30 to 4.90 | ≥ 4.90 | 4.60 to 5.00

Continued, in another order:

Row | melting point [°C] | pIC50 [1] | SMILES | pIC50 [2] | pIC50 [3]
9 | 80 to 81 | 4.30 to 4.90 | COc1cc2c(Oc3ccc(NS(=O)(=O)c4c(C)nn(C)c4C)cc3F)ccnc2cc1OCCCN1CCN(C)CC1 [Example 162, 1,3,5-Trimethyl-1H-pyrazole-4-sulfonic acid (3-fluoro-4-{6-methoxy-7-[3-(4-methyl-piperazin-1-yl)-propoxy]-quinolin-4-yloxy}-phenyl)-amide] | ≥ 4.90 | 4.60 to 5.00
10 | 87 to 89 | 4.30 to 4.90 | COc1cc2c(Oc3cccc(NS(=O)(=O)c4ccn(C)n4)c3)ccnc2cc1OCCCN1CCN(C)CC1 [Example 139, 1-Methyl-1H-pyrazole-3-sulfonic acid (3-{6-methoxy-7-[3-(4-methyl-piperazin-1-yl)-propoxy]-quinolin-4-yloxy}-phenyl)-amide] | 4.30 to 4.90 | 4.60 to 5.00
11 | 147 to 149 | 4.30 to 4.90 | COc1cc2c(Oc3cccc(NS(=O)(=O)c4ccc(C)s4)c3)ccnc2cc1OCCCN1CCN(C)CC1 [Example 131, 5-Methyl-thiophene-2-sulfonic acid (3-{6-methoxy-7-[3-(4-methyl-piperazin-1-yl)-propoxy]-quinolin-4-yloxy}-phenyl)-amide] | ≥ 4.90 | 4.60 to 5.00
12 | 167 to 168 | 4.30 to 4.90 | COc1cc2c(Oc3ccc(NS(=O)(=O)c4ccn(C)n4)cc3F)ccnc2cc1OCCCN1CCCCC1 [Example 163, 1-Methyl-1H-pyrazole-3-sulfonic acid {3-fluoro-4-[6-methoxy-7-(3-piperidin-1-yl-propoxy)-quinolin-4-yloxy]-phenyl}-amide] | ≥ 4.90 | 4.60 to 5.00
13 | 80 to 82 | 4.30 to 4.90 | COc1cc2c(Oc3cc(NS(=O)(=O)c4ccccc4OC(F)(F)F)ccc3F)ccnc2cc1OCCCN1CCC(C)CC1 [Example 190, N-(4-Fluoro-3-{6-methoxy-7-[3-(4-methyl-piperidin-1-yl)-propoxy]-quinolin-4-yloxy}-phenyl)-2-trifluoromethoxy-benzenesulfonamide] | 4.30 to 4.90 | 4.60 to 5.00
14 | 171 to 172 | ≥ 4.90 | COc1cc2c(Oc3cccc(NS(=O)(=O)c4c(F)cccc4F)c3)ccnc2cc1OCCCN1CCN(C)CC1 [Example 125, 2,6-Difluoro-N-(3-{6-methoxy-7-[3-(4-methyl-piperazin-1-yl)-propoxy]-quinolin-4-yloxy}-phenyl)-benzenesulfonamide] | ≥ 4.90 | 4.60 to 5.00
15 | 198 to 199 | 4.30 to 4.90 | COc1cc2c(Oc3ccc(NS(=O)(=O)c4ccn(C)n4)cc3F)ccnc2cc1OCCCN1CCOCC1 [Example 165, 1-Methyl-1H-pyrazole-3-sulfonic acid {3-fluoro-4-[6-methoxy-7-(3-morpholin-4-yl-propoxy)-quinolin-4-yloxy]-phenyl}-amide] | ≥ 4.90 | 4.60 to 5.00
16 | 219 to 220 | 4.30 to 4.90 | COc1cc2c(Oc3ccc(NS(=O)(=O)c4c[nH]c(C)n4)cc3F)ccnc2cc1OCCCN1CCCCC1C (stereo not drawn) [Example 149, 2-Methyl-1H-imidazole-4-sulfonic acid (3-fluoro-4-{6-methoxy-7-[3-(2-methyl-piperidin-1-yl)-propoxy]-quinolin-4-yloxy}-phenyl)-amide] | 4.30 to 4.90 | 4.60 to 5.00
17 | 176 to 177 | 4.30 to 4.90 | COc1cc2c(Oc3cccc(NS(=O)(=O)c4ccco4)c3)ccnc2cc1OCCCN1CCN(C)CC1 [Example 137, Furan-2-sulfonic acid (3-{6-methoxy-7-[3-(4-methyl-piperazin-1-yl)-propoxy]-quinolin-4-yloxy}-phenyl)-amide] | 4.30 to 4.90 | 4.60 to 5.00
18 | 175 to 177 | 4.30 to 4.90 | COc1cc2c(Oc3cc(NS(=O)(=O)c4ccccc4C(F)(F)F)ccc3F)ccnc2cc1OCCCN1CCC(C)CC1 [Example 189, N-(4-Fluoro-3-{6-methoxy-7-[3-(4-methyl-piperidin-1-yl)-propoxy]-quinolin-4-yloxy}-phenyl)-2-trifluoromethyl-benzenesulfonamide] | 4.30 to 4.90 | 4.60 to 5.00
